This is an account of results in patent US8445690B2, “Aminothiazolones as estrogen related receptor-alpha modulators” (Janssen Pharmaceutica NV, priority 2010, dated 2013).

In general, pEC50 refers to the negative decadic logarithm of the EC50, by convention in mol/L. The low end stands for a large EC50, the high end for a small EC50.

The structures appear in SMILES notation. pEC50: −log10 of the molar value.

This assay deals with T1, ERR1 (also known as ERR-α or ERR-1) (Homo sapiens, UniProt P11474).
T1 sequence (P11474 193-421 limits assumed): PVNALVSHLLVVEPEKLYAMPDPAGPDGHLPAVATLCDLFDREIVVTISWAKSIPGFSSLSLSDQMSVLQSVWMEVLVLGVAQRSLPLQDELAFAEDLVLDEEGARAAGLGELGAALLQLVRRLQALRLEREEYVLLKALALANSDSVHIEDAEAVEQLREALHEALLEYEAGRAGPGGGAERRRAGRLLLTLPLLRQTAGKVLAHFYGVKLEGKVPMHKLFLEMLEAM
The assay can be described thus: TR-FRET assay: disruption of co-activator peptide (GST-hSRC2) binding to 6His-tagged ERR1 LBD. Type of assay: biochemical. Conditions: 6 nM ERR1LBD, 6 nM GST-SRC-2 peptide, 25° C., 4-18 hours; average of 3 independent experiments. As to the method: Time-Resolved Fluorescence Resonance Energy Transfer (TR-FRET) experiments were performed to examine the functional response of ERR1 (also known as ERR-α or ERR-1) ligands. The TR-FRET assay described herein relied on the conformation of ERR1 for binding to a co-activator peptide: when a test compound binds to ERR1 and alters its conformation, it can disrupt the binding of the co-activator peptide. The components of this homogeneous secondary assay included: the ^6His-tagged-ERR1LBD, a GST-labeled-hSRC2 co-activator polypeptide and a fluorescent donor/acceptor pair from CIS bio international htrf/bioassays (Bedford, Mass.) using both an α-GST Europium Cryptate (Eu) label and an α^6His-XL665 (allophycocyanin) fluorophore.
For TR-FRET measurements, the reaction was buffered in 25 mM Tris pH 8, 2.5 mM Hepes, 20 mM KCl, 1 mM DTT, and 0.05 mg/mL BSA (-lipids). The final concentrations of reagents were 6 nM of ERR1LBD, 6 nM GST-SRC-2 peptide, 30 nM Eu cryptate, and 7.5 nM XL665. Reactions were allowed to reach equilibrium at 25° C. for 4-18 hours before collecting data on the Analyst from LJL Biosystems (Molecular Devices Sunnyvale, Calif.). As a time-resolved method, the samples were excited at […] and emission was collected for 1 ms at both 615 and 665 nm with delays of 400 and 75 μs, respectively. Dose response curves were fitted using a hyperbolic equation and the data reported is the average of 3 independent experiments.
Compounds listed in Tables II below were tested in the above assay, and they are all active modulators of ERR1.
In general terms: In TR-FRET formats the signal depends on donor and acceptor labels being close together.

In turn, `CN(C)CCCNC1=NC(=O)/C(=C/c2ccc3c(cnn3Cc3ccc(F)cc3C(F)(F)F)c2)S1` [Compound 1, 2-(3-Dimethylamino-propylamino)-5-[1-(4-fluoro-2-trifluoromethyl-benzyl)-1H-indazol-5-ylmethylene]-thiazol-4-one] had a pEC50 of 7.11. With `CN(C)CCCNC1=NC(=O)/C(=C/c2ccc3c(cnn3Cc3ccc(C(F)(F)F)cc3C(F)(F)F)c2)S1` [Compound 2, 5-[1-(2,4-Bis-trifluoromethyl-benzyl)-1H-indazol-5-ylmethylene]-2-(3-dimethylamino-propylamino)-thiazol-4-one], the negative logarithm of the EC50 (pEC50) was 7.92. As for `CN(C)CCCNC1=NC(=O)/C(=C/c2ccc3c(cnn3Cc3ccc(Cl)cc3C(F)(F)F)c2)S1` [Compound 3, 5-[1-(4-Chloro-2-trifluoromethyl-benzyl)-1H-indazol-5-ylmethylene]-2-(3-dimethylamino-propylamino)-thiazol-4-one], the figure is 8.19; as for `O=C(O)CNC1=NC(=O)/C(=C/c2ccc3c(cnn3Cc3ccc(Cl)cc3C(F)(F)F)c2)S1` [Compound 4, {5-[1-(4-Chloro-2-trifluoromethyl-benzyl)-1H-indazol-5-ylmethylene]-4-oxo-4,5-dihydro-thiazol-2-ylamino}-acetic acid], 7.64; as for `COc1ccc(Cn2ncc3cc(/C=C4\SC(NCCN5CCOCC5)=NC4=O)ccc32)c(C(F)(F)F)c1` [Compound 5, 5-[1-(4-Methoxy-2-trifluoromethyl-benzyl)-1H-indazol-5-ylmethylene]-2-(2-morpholin-4-yl-ethylamino)-thiazol-4-one], 8.49. With `COc1ccc(Cn2ncc3cc(/C=C4\SC(NCCN5CCCC5)=NC4=O)ccc32)c(C(F)(F)F)c1` [Compound 6, 5-[1-(4-Methoxy-2-trifluoromethyl-benzyl)-1H-indazol-5-ylmethylene]-2-(2-pyrrolidin-1-yl-ethylamino)-thiazol-4-one] the figure was 8.35.

Compound `COc1ccc(Cn2ncc3cc(/C=C4\SC(NCCCN5CCCC5=O)=NC4=O)ccc32)c(C(F)(F)F)c1` [Compound 7, 5-[1-(4-Methoxy-2-trifluoromethyl-benzyl)-1H-indazol-5-ylmethylene]-2-[3-(2-oxo-pyrrolidin-1-yl)-propylamino]-thiazol-4-one] showed a pEC50 of 8.36. As for `O=C1N=C(NCCOCCO)S/C1=C\c1ccc2c(cnn2Cc2ccc(Cl)cc2Cl)c1` [Compound 8, 5-[1-(2,4-Dichloro-benzyl)-1H-indazol-5-ylmethylene]-2-[2-(2-hydroxy-ethoxy)-ethylamino]-thiazol-4-one], the figure is 7.14; as for `COc1ccc(Cn2ncc3cc(/C=C4\SC(NC[C@H](O)CO)=NC4=O)ccc32)c(C(F)(F)F)c1` [Compound 9, 2-(2S,3-Dihydroxy-propylamino)-5-[1-(4-methoxy-2-trifluoromethyl-benzyl)-1H-indazol-5-ylmethylene]-thiazol-4-one], 8.05; as for `COc1ccc(Cn2ncc3cc(/C=C4\SC(NC[C@@H](O)CO)=NC4=O)ccc32)c(C(F)(F)F)c1` [Compound 10, 2-(2R,3-Dihydroxy-propylamino)-5-[1-(4-methoxy-2-trifluoromethyl-benzyl)-1H-indazol-5-ylmethylene]-thiazol-4-one], 8.31.

Compound `COc1ccc(Cn2ncc3cc(/C=C4\SC(NCC(F)F)=NC4=O)ccc32)c(C(F)(F)F)c1` [Compound 11, 2-(2,2-Difluoro-ethylamino)-5-[1-(4-methoxy-2-trifluoromethyl-benzyl)-1H-indazol-5-ylmethylene]-thiazol-4-one] had a negative logarithm of the EC50 (pEC50) of 8.52. With `O=C1N=C(NCCN2CCOCC2)S/C1=C\c1ccc2c(cnn2Cc2ccc(C(F)(F)F)cc2C(F)(F)F)c1` [Compound 12, 5-[1-(2,4-Bis-trifluoromethyl-benzyl)-1H-indazol-5-ylmethylene]-2-(2-morpholin-4-yl-ethylamino)-thiazol-4-one] the figure was 7.82; with `COc1ccc(Cn2ncc3cc(/C=C4\SC(NC5(C(=O)O)CC5)=NC4=O)ccc32)c(C(F)(F)F)c1` [Compound 13, 1-{5-[1-(4-Methoxy-2-trifluoromethyl-benzyl)-1H-indazol-5-ylmethylene]-4-oxo-4,5-dihydro-thiazol-2-ylamino}-cyclopropanecarboxylic acid], 8.28; with `O=C1N=C(NC2(C(=O)O)CC2)S/C1=C\c1ccc2c(cnn2Cc2ccc(C(F)(F)F)cc2C(F)(F)F)c1` [Compound 14, 1-{5-[1-(2,4-Bis-trifluoromethyl-benzyl)-1H-indazol-5-ylmethylene]-4-oxo-4,5-dihydro-thiazol-2-ylamino}-cyclopropanecarboxylic acid], 8.19. On to `O=C1N=C(NCc2nn[nH]n2)S/C1=C\c1ccc2c(cnn2Cc2ccc(C(F)(F)F)cc2C(F)(F)F)c1` [Compound 15, 5-[1-(2,4-Bis-trifluoromethyl-benzyl)-1H-indazol-5-ylmethylene]-2-[(2H-tetrazol-5-ylmethyl)-amino]-thiazol-4-one], for which the negative logarithm of the EC50 (pEC50) is 8.41. With `O=C1CN(CCNC2=NC(=O)/C(=C/c3ccc4c(cnn4Cc4ccc(C(F)(F)F)cc4C(F)(F)F)c3)S2)CCN1` [Compound 16, 4-(2-{5-[1-(2,4-Bis-trifluoromethyl-benzyl)-1H-indazol-5-ylmethylene]-4-oxo-4,5-dihydro-thiazol-2-ylamino}-ethyl)-piperazin-2-one] the figure was 8.60; with `O=C1N=C(NCCn2cncn2)S/C1=C\c1ccc2c(cnn2Cc2ccc(C(F)(F)F)cc2C(F)(F)F)c1` [Compound 17, 5-[1-(2,4-Bis-trifluoromethyl-benzyl)-1H-indazol-5-ylmethylene]-2-(2-[1,2,4]triazol-1-yl-ethylamino)-thiazol-4-one], 8.12; with `COc1ccc(Cn2ncc3cc(/C=C4\SC(NCCn5cncn5)=NC4=O)ccc32)c(C(F)(F)F)c1` [Compound 18, 5-[1-(4-Methoxy-2-trifluoromethyl-benzyl)-1H-indazol-5-ylmethylene]-2-(2-[1,2,4]triazol-1-yl-ethylamino)-thiazol-4-one], 8.74. As for `O=C1CN(CCNC2=NC(=O)/C(=C/c3ccc4c(cnn4Cc4ccc(Cl)cc4C(F)(F)F)c3)S2)CCN1` [Compound 19, 4-(2-{5-[1-(4-Chloro-2-trifluoromethyl-benzyl)-1H-indazol-5-ylmethylene]-4-oxo-4,5-dihydro-thiazol-2-ylamino}-ethyl)-piperazin-2-one], the figure is 7.96; as for `O=C1N=C(Nc2cccnc2)S/C1=C\c1ccc2c(cnn2Cc2ccc(Cl)cc2C(F)(F)F)c1` [Compound 20, 5-[1-(4-Chloro-2-trifluoromethyl-benzyl)-1H-indazol-5-ylmethylene]-2-(pyridin-3-ylamino)-thiazol-4-one], 7.71.

`O=C1N=C(N[C@H]2CCNC2)S/C1=C\c1ccc2c(cnn2Cc2ccc(Cl)cc2C(F)(F)F)c1` [Compound 21, 5-[1-(4-Chloro-2-trifluoromethyl-benzyl)-1H-indazol-5-ylmethylene]-2-(pyrrolidin-3S-ylamino)-thiazol-4-one] showed a negative-log EC50 (pEC50) of 8.34. `O=C1N=C(NC2CCN(CCO)CC2)S/C1=C\c1ccc2c(cnn2Cc2ccc(Cl)cc2C(F)(F)F)c1` [Compound 22, 5-[1-(4-Chloro-2-trifluoromethyl-benzyl)-1H-indazol-5-ylmethylene]-2-[1-(2-hydroxy-ethyl)-piperidin-4-ylamino]-thiazol-4-one] showed a negative logarithm of the EC50 (pEC50) of 7.85. With `O=C1N=C(NCc2cccnc2)S/C1=C\c1ccc2c(cnn2Cc2ccc(Cl)cc2C(F)(F)F)c1` [Compound 23, 5-[1-(4-Chloro-2-trifluoromethyl-benzyl)-1H-indazol-5-ylmethylene]-2-[(pyridin-3-ylmethyl)-amino]-thiazol-4-one] the figure was 7.77; with `O=C1N=C(NCCn2ccnc2)S/C1=C\c1ccc2c(cnn2Cc2ccc(Cl)cc2C(F)(F)F)c1` [Compound 24, 5-[1-(4-Chloro-2-trifluoromethyl-benzyl)-1H-indazol-5-ylmethylene]-2-(2-imidazol-1-yl-ethylamino)-thiazol-4-one], 7.92; with `CN1CCC(NC2=NC(=O)/C(=C/c3ccc4c(cnn4Cc4ccc(Cl)cc4C(F)(F)F)c3)S2)CC1` [Compound 25, 5-[1-(4-Chloro-2-trifluoromethyl-benzyl)-1H-indazol-5-ylmethylene]-2-(1-methyl-piperidin-4-ylamino)-thiazol-4-one], 7.38.

In the case of `O=C1N=C(N[C@H]2CN3CCC2CC3)S/C1=C\c1ccc2c(cnn2Cc2ccc(C(F)(F)F)cc2C(F)(F)F)c1` [Compound 26, 2-(1-Aza-bicyclo[2.2.2]oct-3(R)-ylamino)-5-[1-(2,4-bis-trifluoromethyl-benzyl)-1H-indazol-5-ylmethylene]-thiazol-4-one], the negative-log EC50 (pEC50) was 7.44.
